According to patent publication US11826341B2, “Baicalein analogs for use in neuroprotection and regulation of immune reactivity” (THE HONG KONG POLYTECHNIC UNIVERSITY, priority 2021, dated 2023):
Entries after “also recorded” stand apart in the source; their conditions may differ.

Tests used:
HMC-3 = test: Intracellular calcium after ATP stimulation; format: cell-based, human; conditions: 10 μM pretreatment 24 hrs; 50 μM ATP stimulation
Experimental: (A) Changes of [Ca^2+]i in cultured HMC-3 with pretreatment of vehicle or 10 μM baicalein for 24 hrs. […] (B) Quantification of [Ca^2]i levels in different treatment groups after stimulation (n=6 cultures/group, and 10-20 neurons were recorded from each group). […] To verify the effect of baicalein on the influence of microglia state, the measurement of intracellular calcium concentration [Ca2+]I was applied. After adding 50 μM ATP to microglial cells, the influx of [Ca2+]I was triggered immediately in naïve group.

[1] = test system: ischemia/reperfusion mice; test: Optomotor response (OMR) after ischemia/reperfusion injury; format: in vivo
Experimental: (K) Graphs showing contrast sensitivity (CS) and (L) visual acuity (VA) of optomotor response (OMR) in mice received ischemia/reperfusion and intravitreal injections of vehicle, 10 μM or 100 μM baicalein. Error bar=SEM. *P<0.05; **P<0.01.

[2] = test system: ischemia/reperfusion mice; conditions: mouse, in vivo
Experimental: The results of electroretinogram (ERG) and optomotor response (OMR) measurements were used to determine the changes of visual functions after ischemia/reperfusion damages. For ERG measurement, positive scotopic threshold response (pSTR), scotopic a- and b-wave, M-cone and 10 Hz flicker amplitudes were obtained from the three experimental groups (i.e. vehicle, 10 μM and 100 μM baicalein) at baseline, 1 wk, 2 wks and 4 wks post-ischemia/reperfusion injury (FIGS. 2A, 2B, 2C, 2D, 2E, 2F, 2G, 2H, 2I and 2J). […] At the same time, the electrical signals from M-cone and 10 Hz-flicker stimulus were also captured (FIGS. 2F, 2G, 2H, 2I and 2J).

RGCs = test: RGC survival in vivo after retinal ischemia/reperfusion injury (Brn-3a whole-mount retina); set-up: species or system mice; conditions: 4 weeks after ischemia/reperfusion, injured control 2,314+/−383, uninjured 3,901+/−145
Experimental: (§1) (A) representative photomicrographs showing Brn-3a staining a whole-mounted retina from four weeks after ischemia injury in vehicle, 10 μM or 100 μM baicalein group; (B) bar graph quantifying the number of survived RGCs in 4 weeks post-injury retina from vehicle, 10 μM or 100 μM baicalein group; (C) bar graph the number of live primary RGC survival rate in vehicle, 1 μM baicalein group. Bar=20 μm. *P<0.05; **P<0.01 value was statistically analyzed by one-way ANOVA.
(§2) Example 1—Baicalein improves RGCs survival in vitro culture or after ischemia/reperfusion damages. To study the effect of baicalein on retinal neurons, we carried out in vitro RGC cultures and in vivo studies of RGCs survival in experimental models of retinal ischemia/reperfusion injury. RGC density dropped from 3,901+/−145 cells/mm^2 to 2,314+/−383 cells/mm^2 at 4 weeks following ischemia/reperfusion injury. […] Moreover, purified mouse RGCs were cultured with vehicle, 1 μM or 10 μM Baicalein for 48 hours.

CD4+ T cells = test: Flow cytometry of CD4+ T cells in retina and superior cervical lymph nodes after ischemia/reperfusion; format: in vivo, mice; conditions: 100 μM
Experimental: (A) 1 wk representative flow images and (B) quantification of the CD4+ cell percentage in the retina at 1 wk and 4 wks timepoint. Flow cytometry quantification of frequencies of subsets of CD4+ T cells in the draining LNs of the eye taken from mice at 1 wk (C) and 4 wks (D) after acute ischemic injury in vehicle or 100 μM baicalein given group. Shown were percentages of CD4+ T cells that expressed IFN-γ, IL-17, IL-4, IL-10 or TGF-β among fresh-isolated total LN lymphocytes. […] Th1, Th2, Th17, and Treg cells, again were divided based on the expression profile of hallmark cytokines: IFN-γ (TH1), IL-4 (TH2), IL-10 (TH2), IL-17 (TH17), and TGF-β (Treg)^16.

[3] = test system: human microglia HMC3 cell line; test: Cytokine array of culture media after LPS and ATP challenge; format: cell-based; conditions: 1 μM or 10 μM for 42 hours after 6 hours LPS and 30 mins ATP
Experimental: (§5) (A) Quantification the averaged pixel density of selected cytokines produced by human microglia cell line HMC-3 culture. […] Error bar=SEM. *P<0.05; **P<0.01. Scale bar=100 μM. One-way ANOVA. […] After 6 hours LPS stimulation and additional 30 mins ATP challenge, vehicle, 1 μM or 10 μM baicalein was delivered to the culture media for an additional 42 hours. The culture media from different groups was collected for the cytokine array, while the cells were lysed for qPCR to identify the mRNA level.

[4] = test system: primary mouse brain microglia; test: PI3K and NFkB immunostaining in LPS and ATP challenged microglia; format: cell-based; conditions: 10 μM; LPS and ATP challenged mouse microglial cells
Experimental: (§3) FIG. 5 Baicalein suppresses PI3K and NFkB pathway in both primary mouse brain microglia and human microglia HMC3 cell line in vitro. (A) Representative bright field images of primary mouse brain microglia and images immunostained with DAPI (blue), p85 PI3K (red) and p65 NFkB (green) antibody in LPS and ATP plus vehicle or 10 μM baicalein delivered group respectively. Scale bar=40 μm (B) Representative human microglia images immunostained with DAPI (blue), p85 PI3K (red) and p65 NFkB (green) antibody in LPS and ATP plus vehicle or 10 μM baicalein delivered group respectively. Error bar=SEM. *P<0.05; **P<0.01. Scale bar=100 μm.
(§4) To further understand if the effects of suppressing microglia activation and cytokines release are related with NFkB and PI3K pathway, we examine the performance of baicalein in primary mouse microglia and human microglial cell line HMC-3.

[5] = test system: human microglia HMC3 cell line; test: as above; format: cell-based; conditions: 10 μM; LPS and ATP challenged human microglial cells
Experimental: as §3, §4

retinal microglia = test: qPCR of activated microglia markers and pro-inflammatory cytokines in retina after ischemia/reperfusion; format: in vivo, mice; conditions: 100 μM
Experimental: Quantifications of qPCR assay showing the relative expression of (B) activated microglia markers and (C) pro-inflammatory cytokines in normal mice, and mice at 1 wk and 4 wks post ischemia/reperfusion retina from vehicle or 100 μM Ba given group. Error bar-SEM. *P<0.05.

purified mouse RGCs = test: Purified RGC culture survival; format: cell-based; conditions: 48 hours, vehicle 35.8+/−1.3%
Experimental: as §1, §2

[6] = test system: human microglia HMC3 cell line; test: qPCR of pro-inflammatory genes after LPS and ATP challenge; format: cell-based; conditions: 1 μM or 10 μM for 42 hours after LPS and ATP
Experimental: as §5

[7] = 100 μM weekly intravitreal, 4 weeks after ischemia

O=c1cc(-c2ccccc2)oc2cc(O)c(O)c(O)c12 [baicalein, 5,6,7-trihydroxyflavone]
elevation of intracellular calcium [Ca2+]i (HMC-3): delayed Ca^2+ influx with reduced magnitude; also recorded: suppressed effectively | visual acuity ([1]; 10 μM intravitreal, after ischemia injury): improvement | contrast sensitivity [1, 7]: improved | visual acuity [1, 7]: improved | Scotopic ERG a wave and b wave (bipolar cells) [2]: protective effects | RGC density (RGCs; 10 μM intravitreal injection day 1 after injury): 3,480+/−197 cells/mm^2 | RGC density (RGCs; 100 μM intravitreal injection day 1 after injury): 3,604+/−137 cells/mm^2 | IFNγ (TH1) CD4+ T cells in superior cervical LNs (CD4+ T cells; 1 and 4 weeks after ischemic injury): significantly inhibited | IL-10 (TH2) expression in superior cervical LNs (CD4+ T cells; 4-week post-injury): lower than that of vehicle-treated | IL-4 (TH2) level in superior cervical LNs (CD4+ T cells; 4-week time point): lower than vehicle group | number of infiltrated T cells in the retina (CD4+ T cells; after ischemia/reperfusion injury): decrease | release of pro-inflammatory factors (CCL2, Cxcl10, IL-1α, IL-10, TNFα, etc) [3]: largely draw the release of pro-inflammatory factors to the resting level | PI3K and NFkB pathway activation [4]: effectively reduce | PI3K and NFkB pathway activation [5]: effectively reduce | mRNA levels of activated microglia markers Iba-1, YM-1 and Nox2 (retinal microglia; retina 1- and 4-week post injury): relatively low mRNA levels | pro-inflammatory cytokines CCL2, IL-1α (qPCR) (retinal microglia; retina, vs vehicle group): down-regulated | RGC survival rate (purified mouse RGCs; 1 μM): 42.0+/−1.2% | RGC survival rate (purified mouse RGCs; 10 μM): 41.1+/−1.9% | IL-6 expression level [6]: significant suppression | expression of IL-10 and TNFα ([6]; vs vehicle group): dramatically dropped | mRNA fold changes of IL-1β and TNFα ([6]; vs vehicle group): consistent anti-inflammation effects
